The values that follow are results of earlier work, collected in patent US5030442A (priority 1989, dated 1991).

For this data set the following is noted: topical form, initial clinical studies.

The structures appear in SMILES notation. “Also recorded” adds a separate entry of the source.

As to `Nc1cc(N2CCCCC2)nc(N)[n+]1[O-]` [minoxidil], the “hair growth response (in words)” value was “reversal of male pattern baldness is most favorable in younger men, and where recent hair loss has occurred; also recorded: new hair growth is observed in a significant percentage of older men and/or where in cases of long-term baldness”.
